Laboratory results reported in ChEMBL document CHEMBL3603755 (J Med Chem, 2015).
pIC50: −log10 of the molar value. The source made the active and inactive calls. No cut-off for these calls is given here.

How the values were obtained:
[1] = test system: CAPAN-1; assay: Antitumor activity against human Capan1 cells xenografted in athymic nu/nu mouse assessed as tumor growth inhibition at 50 mg/kg administered for 5 days; type: functional, organism-based
[2] = Inhibition of human SULU1
[3] = test system: MCF7

Q: Which TGI [1] does the source give for `Cn1nnc2c(C(N)=O)ncn2c1=O` here?
A: inactive

Q: With `NC(=O)c1cc(F)cc2c1C(=O)N(C1CCN(C3CCC(F)(F)CC3)CC1)C2` as the compound, how does the pIC50 [2] read?
A: < 5.00

Q: With `NC(=O)c1cccc2c1C(=O)N(C1CCN(C3CCC(F)(F)CC3)CC1)C2` as the compound, how does the pIC50 [3] read?
A: < 5.00
